In patent US12037324B2, “Biarylmethyl heterocycles” (Université de Montréal, priority 2016, dated 2024):

What was measured:
hAT1R [1] = biological target: T1, hAT1R (Homo sapiens, UniProt P30556); test: cell-based
T1 sequence (P30556 1-359): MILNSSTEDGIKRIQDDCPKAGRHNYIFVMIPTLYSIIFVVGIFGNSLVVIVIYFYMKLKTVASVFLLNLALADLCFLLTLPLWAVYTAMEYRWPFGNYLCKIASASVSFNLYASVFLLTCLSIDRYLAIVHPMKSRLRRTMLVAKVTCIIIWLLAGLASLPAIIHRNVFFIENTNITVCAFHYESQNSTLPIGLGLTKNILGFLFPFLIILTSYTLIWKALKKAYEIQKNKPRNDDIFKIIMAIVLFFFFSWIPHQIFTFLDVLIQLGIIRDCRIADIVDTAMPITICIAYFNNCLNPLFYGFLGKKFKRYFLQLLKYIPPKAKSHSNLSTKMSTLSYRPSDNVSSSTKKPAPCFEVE

hAT1R [2] = biological target: T1, hAT1R; test: cell-based; conditions: agonist mode; for EC50: read-out: BRET P63 EC50
hAT1R [3] = biological target: T1, hAT1R; test: BRET β-arrestin2 biosensor assay, higher receptor expression (hAT1R 5 ng/well), HEK293 cells; type: cell-based; conditions: for EC50: High AT1R Expression
AGTR1 [4] = biological target: T2, AGTR1 (Homo sapiens, UniProt P30556); test: DiscoveRx β-arrestin2 recruitment assay (enzyme complementation, Pathunter CHO-K1 AGTR1 β-arrestin cell line); type: cell-based; conditions: for DiscoveRx β-arrestin2 Ymax (%): maximal response
T2 construct: host or cells: Pathunter CHO-K1 AGTR1 β-arrestin cell line (CHO-K1)
T2 sequence (P30556 1-359): T1 sequence (P30556 1-359)
How it was run: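 CHO-K1 cells expressing AGTR1 with β-arrestin2 enzyme-complementation reporter, plated 14-16 h ahead in 1% serum medium, then exposed to compounds for 90 min at 37° C. Chemiluminescence read after 1 h detection. EC50 (agonist) or IC50 (antagonist) from 4-parameter logistic fit; activity as percentage of All maximal effect.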

AGTR1 [5] = biological target: T2, AGTR1; test: DiscoveRx IP1 accumulation assay (HTRF), agonist mode, Pathunter CHO-K1 AGTR1 β-arrestin cell line; type: cell-based; conditions: for EC50: read-out: IP-1 EC50
How it was run: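 Agonist mode in CHO-K1 AGTR1 β-arrestin cells plated 14-16 h before; compounds at varying concentrations for 90 min at 37° C, IP1 accumulation read by HTRF (D2-conjugate and anti-IP1 cryptate, 20 min room temperature). EC50 from 4-parameter logistic fit; activity given as percentage of maximal AII effect.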

[6] = Low AT1R Expression, read-out: BRET β-Arrestin2 Low AT1R Expression EC50
[7] = DiscoveRx β-arrestin2 recruitment
[8] = section of the 42nd table ending at r951, example numbering restarts after the DiscoveRx section, read-out: β-arrestin2 EC50

Which results are given for CCc1nc2c(C)cc(C)nc2n1Cc1ccc(-c2cc(-c3ncc(C)s3)ccc2-c2nn[nH]n2)cc1 [Example 68]?
BRET β-Arrestin2 Low AT1R Expression Ymax (%) (hAT1R [1]; Low AT1R Expression): 91.1%; EC50 (hAT1R [1]; [6]): 15.3 nM; BRET P63 Ymax (hAT1R [2]): 41.7%; EC50 (hAT1R [2]): 15 nM

For CCCCC1=NC2(CCCC2)C(=O)N1Cc1ccc(-c2cc(-c3cncc(C)c3)ccc2-c2nn[nH]n2)cc1 [Example 129], which EC50 (hAT1R [1]; [6]) is on record?
The EC50 was > 10000 nM.

And the “BRET β-Arrestin2 High AT1R Expression Ymax (%)” value (hAT1R [3])?
Its value is 40.7%.

What about the EC50 (hAT1R [3]) of the same compound?
The EC50 was 240 nM.

And the EC50 (AGTR1 [4]; [7])?
Its EC50 is 33.5 nM.

What about the “DiscoveRx β-arrestin2 Ymax (%)” value (AGTR1 [4]; [7]) of the same compound?
The value was 12.9%.

And the “IP-1 Ymax (%)” value (AGTR1 [5])?
Its value is 2.0%.

And the EC50 (AGTR1 [5])?
The EC50 was 119 nM.

How did the EC50 (hAT1R [1]; [6]) turn out when CCCCC1=NC2(CCCC2)C(=O)N1Cc1ccc(-c2cc(-c3cccc(C)n3)ccc2-c2nn[nH]n2)cc1 [Example 138] was run?
Its EC50 is > 10000 nM.

And the “BRET β-Arrestin2 High AT1R Expression Ymax (%)” value (hAT1R [3])?
Its value is 73.2%.

What about the EC50 (hAT1R [3]) of the same compound?
Its EC50 is 56.9 nM.

And the EC50 (AGTR1 [4]; [7])?
The EC50 was 13.4 nM.

What about the “DiscoveRx β-arrestin2 Ymax (%)” value (AGTR1 [4]; [7]) of the same compound?
Its value is 27.9%.

What about the “IP-1 Ymax (%)” value (AGTR1 [5]) of the same compound?
Its value is 6.3%.

What about the EC50 (AGTR1 [5]) of the same compound?
Its EC50 is 54.1 nM.

For CC1=NC2(CCOCC2)C(=O)N1Cc1ccc(-c2cc(-c3cc(C)ccn3)ccc2-c2nn[nH]n2)cc1 [Example 173, 2-methyl-3-((5′-(4-methylpyridin-2-yl)-2′-(2H-tetrazol-5-yl)-[1,1′-biphenyl]-4-yl)methyl)-8-oxa-1,3-diazaspiro[4.5]dec-1-en-4-one], which EC50 (hAT1R [1]; [8]) is on record?
The EC50 was 80.4 nM.

And the “BRET P63 Ymax” value (hAT1R [2])?
Its value is 19.3%.

What about the EC50 (hAT1R [2]) of the same compound?
The EC50 was 79.1 nM.

With CCc1nc2c(C)cc(C)nc2n1Cc1ccc(-c2cc(-c3cccc(C)c3)ccc2C(=O)O)cc1 [Example 182] as the compound, how does the EC50 (hAT1R [1]; [8]) read?
The EC50 was 26.3 nM.

What about the “BRET β-Arrestin2 High AT1R Expression Ymax (%)” value (hAT1R [3]) of the same compound?
Its value is 90.4%.

What about the EC50 (hAT1R [3]) of the same compound?
Its EC50 is 7 nM.

And the EC50 (AGTR1 [4]; [7])?
Its EC50 is 84.9 nM.

And the “DiscoveRx β-arrestin2 Ymax (%)” value (AGTR1 [4]; [7])?
Its value is 74.2%.

And the “IP-1 Ymax (%)” value (AGTR1 [5])?
Its value is 6.6%.

And the EC50 (AGTR1 [5])?
The EC50 was 132 nM.

What does the source list for CCc1nc2c(C)cc(C)nc2n1Cc1ccc(-c2cc(C(=O)c3ccccc3)ccc2-c2nnn[nH]2)cc1 [Example 210, (4′-((2-Ethyl-5,7-dimethyl-3H-imidazo[4,5-b]pyridin-3-yl)methyl)-6-(1H-tetrazol-5-yl)-[1,1′-biphenyl]-3-yl)(phenyl)methanone]?
EC50 (hAT1R [1]; [8]): 28.4 nM; BRET β-Arrestin2 High AT1R Expression Ymax (%) (hAT1R [3]): 88.2%; EC50 (hAT1R [3]): 9 nM; EC50 (AGTR1 [4]; [7]): 8.6 nM; DiscoveRx β-arrestin2 Ymax (%) (AGTR1 [4]; [7]): 48.4%; IP-1 Ymax (%) (AGTR1 [5]): 14.8%; EC50 (AGTR1 [5]): 82.7 nM

How did the EC50 (hAT1R [1]; [8]) turn out when CCc1nc2c(C)cc(C)nc2n1Cc1ccc(-c2cc(-n3ccc(C(F)(F)F)n3)ccc2-c2nnn[nH]2)cc1 [Example 219] was run?
The EC50 was 33.2 nM.

What about the EC50 (AGTR1 [4]; [7]) of the same compound?
Its EC50 is 35.2 nM.

What about the “DiscoveRx β-arrestin2 Ymax (%)” value (AGTR1 [4]; [7]) of the same compound?
The value was 21.6%.

And the “IP-1 Ymax (%)” value (AGTR1 [5])?
Its value is 6.9%.

What about the EC50 (AGTR1 [5]) of the same compound?
The EC50 was 117 nM.

What does the source list for CCc1nc2c(C)cc(C)nc2n1Cc1ccc(-c2cc(-n3cncc3C)ccc2-c2nnn[nH]2)cc1 [Example 220]?
EC50 (hAT1R [1]; [8]): 36 nM; BRET P63 Ymax (hAT1R [2]): 18.2%; EC50 (hAT1R [2]): 36.8 nM

With CCc1nc2c(C)cc(C)nc2n1Cc1ccc(-c2cc(-n3cnc(C)c3)ccc2-c2nnn[nH]2)cc1 [Example 221] as the compound, how does the EC50 (hAT1R [1]; [8]) read?
Its EC50 is 159 nM.

What about the “BRET P63 Ymax” value (hAT1R [2]) of the same compound?
Its value is 5.4%.

And the EC50 (hAT1R [2])?
The EC50 was 28 nM.

How did the EC50 (hAT1R [1]; [8]) turn out when CCc1nc2c(C)cc(C)nc2n1Cc1ccc(-c2cc(Oc3cccnc3)ccc2-c2noc(=O)[nH]2)cc1 [Example 259] was run?
Its EC50 is 38.8 nM.

What about the “BRET β-Arrestin2 High AT1R Expression Ymax (%)” value (hAT1R [3]) of the same compound?
The value was 83.2%.

What about the EC50 (hAT1R [3]) of the same compound?
The EC50 was 6.9 nM.

What about the EC50 (AGTR1 [4]; [7]) of the same compound?
The EC50 was 12.9 nM.

And the “DiscoveRx β-arrestin2 Ymax (%)” value (AGTR1 [4]; [7])?
The value was 80.6%.

What about the “IP-1 Ymax (%)” value (AGTR1 [5]) of the same compound?
Its value is 9.9%.

And the EC50 (AGTR1 [5])?
The EC50 was 21.1 nM.

Which EC50 (hAT1R [1]; [8]) does the source give for Cc1ccnc(-c2ccc(-c3nn[nH]n3)c(-c3ccc(Cn4nc(C)nc4C)cc3)c2)c1 [Example 458, 2-(4′-((3,5-Dimethyl-1H-1,2,4-triazol-1-yl)methyl)-6-(2H-tetrazol-5-yl)-[1,1′-biphenyl]-3-yl)-4-methylpyridine] here?
Its EC50 is 385 nM.

And the EC50 (AGTR1 [4])?
Its EC50 is 253 nM.

Cc1cnn(-c2ccc(-c3nn[nH]n3)c(-c3ccc(Cn4cnnc4C)cc3)c2)c1 [Example 459, 5-(5-(4-Methyl-1H-pyrazol-1-yl)-4′-((3-methyl-4H-1,2,4-triazol-4-yl)methyl)-[1,1′-biphenyl]-2-yl)-2H-tetrazole] was tested. Which EC50 (hAT1R [1]; [8]) did it give?
The EC50 was 1240 nM.

What about the EC50 (AGTR1 [4]) of the same compound?
Its EC50 is > 10000 nM.
